These results are taken from paper PMC6192554, “In vitro toxicity and efficacy of verdinexor, an exportin 1 inhibitor, on opportunistic viruses affecting immunocompromised individuals” (PLoS ONE, 2018).

Data set [1] relates to Epstein-Barr virus (EBV) Akata strain. Nature of the data set: EBV primary assay, DNA hybridization in induced Akata cells. The format is cell-based. As for the experimental part:
(§1) EBV Akata strain was assayed in Akata cells (John Sixbey, LSU) latently infected with EBV (and therefore oncogenic). Cells were maintained in RPMI 1640, (Mediatech) with 10% FBS (Hyclone), L-glutamine, penicillin and gentamicin.
For Primary assay, Akata cells latently infected with EBV were induced to undergo lytic infection by addition of 50μg/ml of a goat anti-human IgG [16] and a dose-range of verdinexor (0.032 to 100 μM) was added for 72hr. Denaturation buffer was added and an aliquot aspirated through an Immobilon nylon membrane (Millipore, Bedford, MA). Dried membranes were equilibrated in DIG Easy Hyb solution (Roche Diagnostics, Indianapolis, IN) at 56°C. Specific DIG-labeled probes for EBV (S1 Table). (Roche Diagnostics). Membranes with EBV DNA were hybridized overnight followed by washes in 0.2× SSC and 0.1× SSC both with 0.1% SDS. Detection of specifically bound DIG probe was performed with anti-DIG antibody (Roche Diagnostics). An image of the photographic film was captured and quantified with QuantityOne software (Bio-Rad), and the EC50 were interpolated.

For data set [2] the test system is unchanged. Briefly: EBV secondary assay, qPCR of viral DNA in induced Akata cells. The format is cell-based. How it is done:
as §1
Secondary assay for EBV were performed in Akata cells that were induced to undergo a lytic infection with 50μg/ml of a goat anti-human IgG antibody by methods we reported previously. Experimental compounds were diluted in round bottom 96-well plates to yield concentrations ranging from 0.0032–100μM. Akata cells were added to the plates at a concentration of 4×10^4 cells per well and […]. Assay plates were incubated for seven days at 37°C. For all assays, the replication of the virus was assessed by the quantification of viral DNA. For primer sequences, please see S1 Table. EBV DNA was purified according to manufacturer’s instructions (Wizard SV 96 Genomic DNA Purification System). The purified DNA was then subjected to qPCR that amplified a fragment corresponding to nucleotides 96802–97234 in the EBV genome (AJ507799). Plasmid pMP218 containing a DNA sequences corresponding to nucleotides 14120–14182 (AF148805.2) was used to provide absolute quantification of viral DNA. Compound concentrations sufficient to reduce genome copy number by 50% were calculated from experimental data.

Data set [3] is described as follows: Cytotoxicity in HFF cells, concurrent with HCMV assays. It is filed as cell-based. The note with it: human, human foreskin fibroblast cells (HFF). How it is done:
Cytotoxicity assays: Concurrent assessment of cytotoxicity was also performed for each study in the same cell line and with the same compound exposure.
For HCMV cytotoxicity assay was determined via neutral red uptake assay and was conducted as reported previously in HFF cells. Optical densities were determined at 550nm.
Yield reduction assays for HCMV were performed on monolayers of HFF cells prepared in 96-well plates and incubated at 37°C for 1d to allow the cells to reach confluency. Media was then aspirated from the wells were infected at a high multiplicity of infection (MOI). At 1h following infection, the inocula were removed and the monolayers rinsed with fresh media. Compounds were then diluted in assay media consisting of MEM with Earl’s salts supplemented with 2% FBS, L-glutamine, penicillin, and gentamycin. Solutions ranging from 0.0032–10μM in primary assay and 0.032–100μM in secondary assay were added to the wells and the plates were incubated for various times, depending on the virus used and represents the length of a single replication cycle for the virus. A duplicate set of dilutions were also performed but remained uninfected to serve as a cytotoxicity control and received equal compound exposure. Supernatants from each of the infected wells were subsequently titered in a TCID50 assay to quantify the progeny virus. […]

A short description of data set [4]: Cytotoxicity in HFF cells, concurrent with BKPyV assays. The format is cell-based. The note with it: human. As for the experimental part: Cytotoxicity assays: Concurrent assessment of cytotoxicity was also performed for each study in the same cell line and with the same compound exposure. For KSHV, cell viability was assessed with the CellTiter-Glo Luminescent Cell Viability Assay (Promega) using manufacturer’s protocol. Luminescence was quantified on a luminometer. Standard methods were used to calculate the 50% cytotoxic level (CC50). Cytotoxicity assay was performed in a manner analogous to KSHV above.

The next data set relates to Murine CMV strain Smith. Nature of the data set: MCMV plaque reduction assay in MEF cells. The format is cell-based, murine cytomegalovirus. The note with it: primary screen. How it is done: (§2) Murine CMV strain Smith was obtained from Earl Kern and assayed in mouse embryonic fibroblast cells (MEF) immortalized by telomerization. Guinea pig CMV strain 22122 was obtained from the ATCC and assayed in primary guinea pig lung cells (GPL). Both MEF and GPL cells were prepared at the UAB tissue procurement facility with IRB approval as previously described.
(§3) Plaque reduction assays for MCMV, GPCMV were performed on monolayers of GPL (GPCMV) or MEF (MCMV) cells prepared in six-well plates and incubated at 37°C for 2d to allow the cells to reach confluency. Media was then aspirated from the wells and 0.2ml of virus was added to each of three wells to yield 20–30 plaques in each well. The virus was allowed to adsorb to the cells for 1h and the plates were agitated every 15min. Compounds were diluted in assay media consisting of MEM with Earl’s salts supplemented with 2% FBS, L-glutamine, penicillin, and gentamycin. Solutions ranging from 0.0032–10μM (primary) or 0.032–100μM (secondary) were added to triplicate wells and the plates were incubated for various times, depending on the virus used. For MCMV and GPCMV, the cell monolayer was stained with 1% neutral red solution for 4h at which time the stain was aspirated and cells were washed with PBS. […]

Data set [5] concerns Guinea pig CMV strain 22122. Nature of the data set: GPCMV plaque reduction assay in GPL cells. It is filed as cell-based, guinea pig cytomegalovirus. The note with it: in Cavia porcellus, primary screen. As for the experimental part: as §2, §3
For the next data set, the target named is histamine H1 receptor (Homo sapiens, UniProt P35367). Briefly: Histamine H1 receptor functional activity assay, agonist. The format is biochemical. The note with it: Study No. KS-1017, read-out: IC50 (50% inhibitory concentration).
Another data set has as its system diverse panel of viruses. Briefly: Broad antiviral screening, summary over all viruses. The format is cell-based. The note with it: across the panel of viruses; read-out: median EC50.
The conditions of data set [6]: mouse, in vivo, 10 mg/kg; cited from earlier work.
[7] abbreviates: human gammaherpesvirus 4, Akata.

pEC50, pIC50: −log10 of the molar value.

Sequence of histamine H1 receptor (P35367 whole entry, species assumed): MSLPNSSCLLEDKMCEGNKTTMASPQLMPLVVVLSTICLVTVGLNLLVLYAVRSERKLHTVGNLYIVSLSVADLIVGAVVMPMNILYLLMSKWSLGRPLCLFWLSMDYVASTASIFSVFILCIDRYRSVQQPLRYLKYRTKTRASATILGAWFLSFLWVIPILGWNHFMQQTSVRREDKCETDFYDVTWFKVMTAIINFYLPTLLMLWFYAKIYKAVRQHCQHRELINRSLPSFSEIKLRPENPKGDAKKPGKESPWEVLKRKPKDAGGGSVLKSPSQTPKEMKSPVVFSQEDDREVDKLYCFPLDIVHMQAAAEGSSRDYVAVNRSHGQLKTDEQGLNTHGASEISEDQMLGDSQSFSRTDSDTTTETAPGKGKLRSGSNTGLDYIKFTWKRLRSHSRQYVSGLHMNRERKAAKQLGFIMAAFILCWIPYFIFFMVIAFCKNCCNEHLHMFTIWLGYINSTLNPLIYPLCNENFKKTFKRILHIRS
Description for diverse panel of viruses: Each assay was performed in triplicate in 2 independent assays. In some cases different assays were used for the secondary screen, as alternate experimental procedures are able to measure differential effects on the viral life cycle (ie. qPCR for genome replication, plaque reduction for replication, assembly and release, etc.).

Regarding `O=C(C=Cn1cnc(-c2cc(C(F)(F)F)cc(C(F)(F)F)c2)n1)NNc1ccccn1` (stereo in doubt) [verdinexor, (E)-3-[3-[3,5-bis(trifluoromethyl)phenyl]-1,2,4-triazol-1-yl]-N'-pyridin-2-ylprop-2-enehydrazide], the “SI (Selectivity Index, CC50/EC50)” value is on record as < 1 in [1] (EBV, primary screen, DNA hybridization) and 7 in data set [2] (EBV, secondary screen, qPCR). Further, the pEC50 in data set [1] (setting [7]) was < 6.32; in [2] (setting [7]), 7.30; in the data set with Murine CMV strain Smith it was 6.72; in data set [5] it was 6.72; in the data set with diverse panel of viruses it was 5.70. Also, the CC50 in [3] (HCMV primary screen) came to 1.76 µM; in data set [3] (HCMV secondary screen), 73.3 µM; in [4] (BKPyV primary screen) it was 10 µM; in data set [4] (BKPyV secondary screen) it was 9.38 µM. For the same compound, the pIC50 at histamine H1 receptor is < 5.00. In data set [6], the half life was 6 h.
